Source: patent US20190093170A1, “USE OF TRANSLATIONAL PROFILING TO IDENTIFY TARGET MOLECULES FOR THERAPEUTIC TREATMENT” (THE REGENTS OF THE UNIVERSITY OF CALIFORNIA, priority 2013, published 2019)

Test system: PC3 human prostate cancer cells
Experiment: RNA-seq mRNA abundance (part of ribosome profiling experiment);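 further: average poly(A) RNA-seq read density per codon over the coding sequence, excluding 15 initial and 5 final codons, mapped to hg19 transcripts, taken as mRNA abundance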
Format: cell-based
Conditions: for PP242 mRNA: 3-hour treatment with PP242 (2.5 μM) in PC3 cells
Experimental: Cells were subsequently treated with cycloheximide (100 μg ml^−1; Sigma) and detergent lysis was performed in the dish. The lysate was treated with DNase and clarified, and a sample was taken for RNA-seq analysis. Lysates were subjected to ribosome footprinting by nuclease treatment. Ribosome-protected fragments were purified, and deep sequencing libraries were generated from these fragments, as well as from poly(A) mRNA purified from non-nuclease-treated lysates. These libraries were analyzed by sequencing on an Illumina GAII.
Ribosome footprint and RNA-seq sequencing reads were aligned against a library of transcripts from the UCSC Known Genes database GRCh37/hg19. The first 25 nucleotides of each read were aligned using Bowtie and this initial alignment was then extended to encompass the full fragment-derived portion of the sequencing read while excluding the linker sequence. Read density profiles were then constructed for the canonical transcript of each gene, using only reads with 0 or 1 total mismatches between the read sequence and the reference sequence, comprised of the transcript fragment followed by the linker sequence. Footprint reads were assigned to an A site nucleotide at position +15 to +17 of the alignment, based on the total fragment length; mRNA reads were assigned to the first nucleotide of the alignment. The average read density per codon was then computed for the coding sequence of each transcript, excluding the first 15 and last 5 codons, which can display atypical ribosome accumulation.
Average read density was used as a measure of mRNA abundance (RNA-seq reads) and of protein synthesis (ribosome profiling reads). For most analyses, genes were filtered to require at least 256 reads in the relevant RNA-seq samples. Translational efficiency was computed as the ratio of ribosome footprint read density to RNA-seq read density, scaled to normalize the translational efficiency of the median gene to 1.0 after excluding regulated genes (log 2 fold-change+1.5 after normalizing for the all-gene median). Changes in protein synthesis, mRNA abundance and translational efficiency were similarly computed as the ratio of read densities between different samples, normalized to give the median gene a ratio of 1.0. This normalization corrects for differences in the absolute number of sequencing reads obtained for different libraries.

With `CC(C)n1nc(-c2cc3cc(O)ccc3[nH]2)c2c(N)ncnc21` [PP242] the “PP242 mRNA” value (gene ACD) was 0.20, the mRNA (gene ACTG1) was 0.28 and the mRNA (gene AGRN) was 0.50. It also gave a mRNA (gene ALKBH7) of 0.51, a mRNA (gene AP2A1) of 0.42 and a mRNA (gene ARD1A) of 0.03. The mRNA (gene ATP5G2) was 0.17, the “PP242 mRNA” value (gene C17orf28) was 0.21 and the mRNA (gene C21orf66) was −0.31. The “PP242 mRNA” value (gene CCNA1) was −0.33, the mRNA (gene CCNI) was 0.24 and the mRNA (gene CD44) was 0.43. For the same compound, the mRNA (gene CIRBP) was 0.54, the mRNA (gene CLPTM1) was 0.41 and the mRNA (gene COL6A2) was 0.57. The mRNA (gene CRTAP) was 0.33, the “PP242 mRNA” value (gene DDX51) was 0.17 and the “PP242 mRNA” value (gene DGCR2) was 0.05. The mRNA (gene ECSIT) was 0.26, the “PP242 mRNA” value (gene EEF1A1) was 0.29 and the mRNA (gene EEF1A2) was 0.40. It also gave a mRNA (gene EEF1D) of 0.35, a mRNA (gene EEF1G) of 0.15 and a mRNA (gene EEF2) of 0.76. For the same compound, the mRNA (gene EIF3H) was 0.09, the mRNA (gene EIF3L) was 0.21 and the mRNA (gene EIF4B) was 0.61. It also gave a mRNA (gene EVPL) of 0.38, a mRNA (gene FAM83H) of 0.33 and a mRNA (gene FAM128B) of 0.43. It also gave a mRNA (gene FASN) of 0.30, a mRNA (gene GLTSCR2) of 0.70 and a mRNA (gene GNB2L1) of 0.27. For the same compound, the “PP242 mRNA” value (gene GTPBP3) was 0.15, the mRNA (gene HNRNPA1) was 0.27 and the mRNA (gene HSPA8) was −0.40. The mRNA (gene IMPDH2) was 0.21, the mRNA (gene LAMA5) was 0.40 and the mRNA (gene LMF2) was 0.62. The “PP242 mRNA” value (gene MAPK6) was 0.10, the “PP242 mRNA” value (gene MAPKAPK2) was −0.22 and the mRNA (gene MTA1) was 0.21. The mRNA (gene NCLN) was 0.29, the “PP242 mRNA” value (gene NFATC21P) was 0.08 and the “PP242 mRNA” value (gene NR2F1) was 0.87. The mRNA (gene PABPC1) was 0.16, the mRNA (gene PABPC4) was 0.40 and the mRNA (gene PACS1) was 0.45. For the same compound, the mRNA (gene PFDN5) was 0.04, the mRNA (gene PGLS) was 0.21 and the mRNA (gene PGM1) was 0.23. The mRNA (gene PNKP) was 0.33, the “PP242 mRNA” value (gene PRKD3) was −0.46 and the mRNA (gene PTGES2) was 0.17. The mRNA (gene RABGGTB) was 0.20, the “PP242 mRNA” value (gene RBPJ) was 0.17 and the mRNA (gene RPL3) was 0.22. It also gave a mRNA (gene RPL4) of 0.10, a mRNA (gene RPL7) of 0.01 and a mRNA (gene RPL7A) of 0.15. The mRNA (gene RPL9) was −0.08, the mRNA (gene RPL10) was 0.25 and the mRNA (gene RPL10A) was 0.14. The mRNA (gene RPL11) was 0.14, the mRNA (gene RPL12) was 0.12 and the mRNA (gene RPL13) was 0.26. For the same compound, the mRNA (gene RPL13A) was 0.30, the mRNA (gene RPL15) was 0.19 and the mRNA (gene RPL18A) was 0.23. The mRNA (gene RPL19) was 0.11, the mRNA (gene RPL21) was −0.04 and the mRNA (gene RPL22) was 0.00. For the same compound, the mRNA (gene RPL24) was 0.00, the mRNA (gene RPL26) was 0.02 and the mRNA (gene RPL27) was −0.13. The mRNA (gene RPL27A) was 0.07, the mRNA (gene RPL28) was 0.22 and the “PP242 mRNA” value (gene RPL28) was 0.55. It also gave a mRNA (gene RPL31) of 0.05, a mRNA (gene RPL32) of 0.11 and a mRNA (gene RPL34) of 0.04. For the same compound, the mRNA (gene RPL36A) was −0.01, the mRNA (gene RPL37A) was 0.01 and the mRNA (gene RPL39) was −0.15. The “PP242 mRNA” value (gene RPL39) was −0.42, the mRNA (gene RPL41) was −0.01 and the mRNA (gene RPLP0) was 0.12. For the same compound, the mRNA (gene RPLP1) was 0.12, the mRNA (gene RPLP2) was 0.14 and the mRNA (gene RPS2) was 0.20. For the same compound, the mRNA (gene RPS3) was 0.24, the mRNA (gene RPS3A) was −0.06 and the mRNA (gene RPS4X) was 0.12. The mRNA (gene RPS5) was 0.23, the mRNA (gene RPS7) was −0.04 and the mRNA (gene RPS9) was 0.34. The mRNA (gene RPS12) was 0.04, the mRNA (gene RPS13) was −0.08 and the mRNA (gene RPS14) was 0.16. It also gave a mRNA (gene RPS15) of 0.21, a mRNA (gene RPS15A) of 0.07 and a mRNA (gene RPS19) of 0.23. For the same compound, the mRNA (gene RPS20) was −0.01, the “PP242 mRNA” value (gene RPS20) was −0.10 and the mRNA (gene RPS21) was 0.09. The mRNA (gene RPS25) was −0.04, the mRNA (gene RPS27) was 0.07 and the “PP242 mRNA” value (gene RPS27) was 0.06. The mRNA (gene RPS27A) was −0.04, the mRNA (gene RPS28) was 0.28 and the “PP242 mRNA” value (gene SDCCAG10) was −0.37. It also gave a mRNA (gene SLC19A1) of 0.10, a mRNA (gene TKT) of 0.33 and a mRNA (gene TPT1) of 0.01. The mRNA (gene TSC2) was 0.21, the mRNA (gene UBA52) was 0.18 and the “PP242 mRNA” value (gene UBTD2) was 0.25. For the same compound, the “PP242 mRNA” value (gene UCHL5) was −0.51, the “PP242 mRNA” value (gene VHL) was 0.43 and the mRNA (gene VIM) was 0.67. It also gave a mRNA (gene YB1) of 0.24.
